Measurements taken from PubChem BioAssay (NCI).
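Protocol summary: plate cells (96-well), add compound at 5 concentrations, incubate 48 h, interpolate endpoints linearly. GI50 is the concentration that inhibits growth by half. TGI is the concentration that stops growth completely.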

How the values were obtained:
Experiment in all cases: NCI tumour cell line growth inhibition, 48 h
SNB-75 CNS = system: SNB-75 CNS
OVCAR-3 ovarian = system: OVCAR-3 ovarian
TK-10 renal = system: TK-10 renal
K-562 leukemia = system: K-562 leukemia
786-0 renal = system: 786-0 renal
SK-MEL-2 melanoma = system: SK-MEL-2 melanoma
SF-295 CNS = system: SF-295 CNS
MOLT-4 leukemia = system: MOLT-4 leukemia
UACC-257 melanoma = system: UACC-257 melanoma
SR leukemia = system: SR leukemia

SMILES: COC(=O)CCC(NC(=S)N/N=C(\C)c1ccc[nH]1)C(=O)OC (stereo unspecified)
- TGI (SNB-75 CNS): > 100 µM
- TGI (OVCAR-3 ovarian): > 100 µM
- TGI (TK-10 renal): > 100 µM
- TGI (K-562 leukemia): > 100 µM
- TGI (786-0 renal): > 100 µM
- TGI (SK-MEL-2 melanoma): > 100 µM
- TGI (SF-295 CNS): > 100 µM
- TGI (MOLT-4 leukemia): > 100 µM
- TGI (UACC-257 melanoma): > 100 µM

SMILES: Oc1c(C(Nc2ccccc2Br)c2ccccc2)ccc2cccnc12 (stereo unspecified)
- GI50 (SNB-75 CNS): 2.82 µM
- TGI (SNB-75 CNS): 48.6 µM
- GI50 (OVCAR-3 ovarian): 5.37 µM
- TGI (OVCAR-3 ovarian): 23.9 µM
- GI50 (TK-10 renal): 3.34 µM
- TGI (TK-10 renal): 46.3 µM
- GI50 (K-562 leukemia): 2.3 µM
- TGI (K-562 leukemia): > 100 µM
- GI50 (786-0 renal): 2.22 µM
- TGI (786-0 renal): 6.41 µM
- GI50 (SR leukemia): 0.715 µM
- TGI (SR leukemia): > 100 µM
- GI50 (SF-295 CNS): 1.65 µM
- TGI (SF-295 CNS): 47.3 µM
- GI50 (MOLT-4 leukemia): 1.68 µM
- TGI (MOLT-4 leukemia): 7.56 µM
- GI50 (UACC-257 melanoma): 1.88 µM
- TGI (UACC-257 melanoma): 8.48 µM

SMILES: CCC(=O)N1C/C(=C/c2ccc(Cl)cc2)C(=O)/C(=C/c2ccc(Cl)cc2)C1
- GI50 (SNB-75 CNS): 1.37 µM
- TGI (SNB-75 CNS): 3.1 µM
- GI50 (OVCAR-3 ovarian): 0.622 µM
- TGI (OVCAR-3 ovarian): 1.75 µM
- GI50 (TK-10 renal): 1.76 µM
- TGI (TK-10 renal): 3.52 µM
- GI50 (K-562 leukemia): 0.317 µM
- GI50 (786-0 renal): 0.332 µM
- TGI (786-0 renal): 1.22 µM
- GI50 (SK-MEL-2 melanoma): 2.01 µM
- TGI (SK-MEL-2 melanoma): 3.94 µM
- GI50 (SF-295 CNS): 0.514 µM
- TGI (SF-295 CNS): 2.09 µM
- GI50 (MOLT-4 leukemia): 0.974 µM
- TGI (MOLT-4 leukemia): 5.87 µM
- GI50 (UACC-257 melanoma): 1.64 µM
- TGI (UACC-257 melanoma): 3.24 µM

SMILES: OCCCCC#Cc1ccccc1C#Cc1ccc(O)cc1
- GI50 (SNB-75 CNS): 13.6 µM
- TGI (SNB-75 CNS): 29.3 µM
- GI50 (OVCAR-3 ovarian): 14.8 µM
- TGI (OVCAR-3 ovarian): 30.4 µM
- GI50 (TK-10 renal): 17.5 µM
- TGI (TK-10 renal): 31.7 µM
- GI50 (K-562 leukemia): 20.4 µM
- TGI (K-562 leukemia): 45 µM
- GI50 (786-0 renal): 19.4 µM
- TGI (786-0 renal): 36.2 µM
- GI50 (SK-MEL-2 melanoma): 20.8 µM
- TGI (SK-MEL-2 melanoma): 43 µM
- GI50 (SF-295 CNS): 16.2 µM
- TGI (SF-295 CNS): 32 µM
- GI50 (MOLT-4 leukemia): 9.96 µM
- TGI (MOLT-4 leukemia): 38.9 µM
- GI50 (UACC-257 melanoma): 18.5 µM
- TGI (UACC-257 melanoma): 33.9 µM

SMILES: COc1ccccc1/C=C1\COc2ccc(-c3ccccc3)cc2C1=O
- GI50 (SNB-75 CNS): 2.46 µM
- TGI (SNB-75 CNS): 6.97 µM
- GI50 (OVCAR-3 ovarian): 2.58 µM
- TGI (OVCAR-3 ovarian): 5.48 µM
- GI50 (TK-10 renal): 2.64 µM
- TGI (TK-10 renal): 7.91 µM
- GI50 (K-562 leukemia): 4.54 µM
- TGI (K-562 leukemia): > 100 µM
- GI50 (786-0 renal): 4.31 µM
- TGI (786-0 renal): > 100 µM
- GI50 (SK-MEL-2 melanoma): 3.82 µM
- TGI (SK-MEL-2 melanoma): 22.1 µM
- GI50 (SR leukemia): 1.31 µM
- TGI (SR leukemia): > 100 µM
- GI50 (SF-295 CNS): 4 µM
- TGI (SF-295 CNS): 85.4 µM
- GI50 (MOLT-4 leukemia): 2.16 µM
- TGI (MOLT-4 leukemia): > 100 µM

SMILES: CN(C)Cc1ccc(-c2cc3onc(-c4ccccc4)c3c(=O)n2C)cc1
- TGI (OVCAR-3 ovarian): > 100 µM
- TGI (TK-10 renal): 53.1 µM
- TGI (K-562 leukemia): 74.2 µM
- TGI (786-0 renal): 35 µM
- TGI (SK-MEL-2 melanoma): 78.8 µM
- TGI (SR leukemia): 34 µM
- TGI (SF-295 CNS): 46.5 µM
- TGI (MOLT-4 leukemia): 49.2 µM
- TGI (UACC-257 melanoma): 35.6 µM

SMILES: COc1cc(CNc2nc3c(N)cc(C(F)(F)F)cc3nc2-c2ccccc2)cc(OC)c1OC
- TGI (SNB-75 CNS): > 100 µM
- TGI (OVCAR-3 ovarian): > 100 µM
- GI50 (TK-10 renal): > 100 µM
- TGI (TK-10 renal): > 100 µM
- TGI (K-562 leukemia): > 100 µM
- TGI (786-0 renal): > 100 µM
- TGI (SK-MEL-2 melanoma): > 100 µM
- TGI (SF-295 CNS): > 100 µM
- GI50 (MOLT-4 leukemia): > 100 µM
- TGI (MOLT-4 leukemia): > 100 µM
- TGI (UACC-257 melanoma): > 100 µM

SMILES: N#Cc1nc(-c2ccc(F)cc2)oc1S(=O)(=O)N1CCCCC1
- GI50 (SNB-75 CNS): 11.8 µM
- TGI (SNB-75 CNS): 25 µM
- GI50 (OVCAR-3 ovarian): 1.86 µM
- TGI (OVCAR-3 ovarian): 3.48 µM
- GI50 (TK-10 renal): 1.78 µM
- TGI (TK-10 renal): 3.27 µM
- GI50 (K-562 leukemia): 2.43 µM
- TGI (K-562 leukemia): > 100 µM
- GI50 (786-0 renal): 1.8 µM
- TGI (786-0 renal): 3.53 µM
- GI50 (SK-MEL-2 melanoma): 2.03 µM
- TGI (SK-MEL-2 melanoma): 4.92 µM
- GI50 (SF-295 CNS): 14.1 µM
- TGI (SF-295 CNS): 27.4 µM
- GI50 (MOLT-4 leukemia): 2.22 µM
- TGI (MOLT-4 leukemia): 8.21 µM
- GI50 (UACC-257 melanoma): 1.98 µM
- TGI (UACC-257 melanoma): 4.58 µM

SMILES: COc1cc2c(cc1OC)C(C(=O)O)C(c1ccccc1)N(C)C2=O (stereo unspecified)
- TGI (SNB-75 CNS): > 100 µM
- TGI (OVCAR-3 ovarian): > 100 µM
- TGI (TK-10 renal): > 100 µM
- TGI (K-562 leukemia): > 100 µM
- TGI (786-0 renal): > 100 µM
- TGI (SK-MEL-2 melanoma): > 100 µM
- TGI (SF-295 CNS): > 100 µM
- TGI (MOLT-4 leukemia): > 100 µM
- TGI (UACC-257 melanoma): > 100 µM

SMILES: O=C(Oc1cccc(Cl)c1)c1ccccc1Nc1ccnc(C(F)(F)F)c1
- GI50 (OVCAR-3 ovarian): 3.8 µM
- TGI (OVCAR-3 ovarian): 18.1 µM
- GI50 (TK-10 renal): 85 µM
- TGI (TK-10 renal): > 100 µM
- GI50 (K-562 leukemia): 3.27 µM
- TGI (K-562 leukemia): 34.3 µM
- GI50 (786-0 renal): 3.53 µM
- TGI (786-0 renal): 11.4 µM
- GI50 (SK-MEL-2 melanoma): 15.7 µM
- TGI (SK-MEL-2 melanoma): > 100 µM
- GI50 (SR leukemia): 0.434 µM
- TGI (SR leukemia): > 100 µM
- GI50 (SF-295 CNS): 18.3 µM
- TGI (SF-295 CNS): 45.5 µM
- GI50 (MOLT-4 leukemia): 0.938 µM
- TGI (MOLT-4 leukemia): > 100 µM

SMILES: Cc1ccc(/C=C/c2c(C(=O)/C=C/c3ccccc3)c(C)nc3ccccc23)cc1
- GI50 (OVCAR-3 ovarian): 1.51 µM
- TGI (OVCAR-3 ovarian): 2.88 µM
- GI50 (K-562 leukemia): 1.73 µM
- TGI (K-562 leukemia): 5.38 µM
- GI50 (786-0 renal): 1.63 µM
- TGI (786-0 renal): 3.05 µM
- GI50 (SR leukemia): 1.18 µM
- TGI (SR leukemia): 5.67 µM
- GI50 (SF-295 CNS): 2.2 µM
- TGI (SF-295 CNS): 5.02 µM
- GI50 (MOLT-4 leukemia): 0.708 µM
- TGI (MOLT-4 leukemia): 4.29 µM
- GI50 (UACC-257 melanoma): 1.86 µM
- TGI (UACC-257 melanoma): 4.02 µM

SMILES: C/C(CC(=O)Nc1cccc(Cl)c1C)=N\NC(N)=S
- TGI (SNB-75 CNS): > 100 µM
- TGI (OVCAR-3 ovarian): > 100 µM
- TGI (TK-10 renal): > 100 µM
- TGI (K-562 leukemia): > 100 µM
- TGI (786-0 renal): > 100 µM
- TGI (SK-MEL-2 melanoma): > 100 µM
- TGI (SF-295 CNS): > 100 µM
- TGI (MOLT-4 leukemia): > 100 µM
- TGI (UACC-257 melanoma): > 100 µM

SMILES: O=C1C2C(C(=O)N1c1ccccc1)C1c3ccccc3C2C2C(=O)N(c3ccccc3)C(=O)C21 (stereo unspecified)
- TGI (SNB-75 CNS): 22.6 µM
- TGI (OVCAR-3 ovarian): > 100 µM
- TGI (TK-10 renal): > 100 µM
- TGI (K-562 leukemia): > 100 µM
- TGI (786-0 renal): > 100 µM
- TGI (SK-MEL-2 melanoma): 6.52 µM
- TGI (SF-295 CNS): 15.5 µM
- TGI (MOLT-4 leukemia): > 100 µM
- TGI (UACC-257 melanoma): > 100 µM

SMILES: ClC(Cl)=C(Cl)C1(Cl)CC1COCc1ccccc1 (stereo unspecified)
- TGI (SNB-75 CNS): > 100 µM
- TGI (OVCAR-3 ovarian): 68.2 µM
- TGI (TK-10 renal): > 100 µM
- TGI (K-562 leukemia): > 100 µM
- TGI (786-0 renal): > 100 µM
- TGI (SK-MEL-2 melanoma): 36.7 µM
- TGI (SF-295 CNS): 96.2 µM
- TGI (MOLT-4 leukemia): 55.1 µM
- TGI (UACC-257 melanoma): 97.2 µM

SMILES: c1ccc(-c2nn3c(c2-c2ccnc4cc(OCCN5CCOCC5)ccc24)CCC3)nc1
- GI50 (SNB-75 CNS): 59 µM
- TGI (SNB-75 CNS): > 100 µM
- GI50 (OVCAR-3 ovarian): > 69.9 µM
- TGI (OVCAR-3 ovarian): > 100 µM
- GI50 (TK-10 renal): > 100 µM
- TGI (TK-10 renal): > 100 µM
- GI50 (K-562 leukemia): 30.3 µM
- TGI (K-562 leukemia): > 100 µM
- GI50 (786-0 renal): > 100 µM
- TGI (786-0 renal): > 100 µM
- GI50 (SK-MEL-2 melanoma): > 100 µM
- TGI (SK-MEL-2 melanoma): > 100 µM
- GI50 (SF-295 CNS): > 100 µM
- TGI (SF-295 CNS): > 100 µM
- GI50 (MOLT-4 leukemia): 51.8 µM
- TGI (MOLT-4 leukemia): > 100 µM
- GI50 (UACC-257 melanoma): > 100 µM
- TGI (UACC-257 melanoma): > 100 µM

SMILES: O=c1cc(-c2ccccn2)[nH]c2cccc(F)c12
- TGI (SNB-75 CNS): > 100 µM
- TGI (OVCAR-3 ovarian): > 100 µM
- TGI (TK-10 renal): > 100 µM
- TGI (K-562 leukemia): > 100 µM
- TGI (786-0 renal): > 100 µM
- TGI (SR leukemia): > 100 µM
- TGI (SF-295 CNS): > 100 µM
- TGI (MOLT-4 leukemia): > 100 µM
- TGI (UACC-257 melanoma): > 100 µM
